Results as given in patent publication US20030207933A1, “Compositions and methods for increasing the sensitivity of apoptosis-resistant tumor cells to inducers of apoptosis” (priority 2002, published 2003).

Legend:
HL-60 Bcl-2 cells = test: DNA fragmentation (release of 3H-labeled DNA fragments) in Bcl-2-transfected HL-60 cells; type: cell-based, human
RIF-1 fibrosarcoma = RIF-1 fibrosarcoma tumor growth in vivo; parameters: species or system mice
From the text: The present study tested in the ability of W-188 to synergize with Dox and inhibit tumor growth in vivo. The RIF-1 fibrosarcoma model was used because this model has been well-characterized, and naturally expresses high Bcl-2 levels and has a consistent growth pattern (Nahabedian, M. Y., et al., J. Natl. Can. Inst., 1988, 80:739; Chang, M-J., et al., Cancer Res., 1994, 54:5380; Srivastana, M., et al., J. Biol. Chem., 2001, 276:15481).
Groups of five mice each were inoculated s.c. with RIF-1 cells. The tumors were allowed to grow for 12 days to a size of 0.5 cm diameter, which was designated day 0. The mice were then given five i.p. injections every other day with vehicle, Dox 2.5 mg/kg, Dox 5.0 mg/kg, W-188 100 mg/kg, and Dox 5.0 mg/kg+W-188 100 mg/kg. The mice were weighed and the tumor size measured every day.
The protocol was similar to that described for the W-188 experiment in Example 8, except that in this study, mice with established tumors received only three injections of W-143 or Dox every other day starting on day 0.

mice = test: Multiple dose toxicity with histopathological analysis; type: in vivo; settings: doxorubicin 5 mg/kg alone
Method: In the present study, more extensive toxicity studies with histopathological analysis of seven different tissues was performed on W-143 at a commercial lab.
Groups of six mice (3 male and 3 females) each were given three i.p. injections at two day intervals of vehicle, doxorubicin 5 mg/kg alone, W-143 200 mg/kg alone or both together. On day 5 and day 15 after the last injection, mice were sacrificed, necropsied, and tissue samples processed. Tissues examined include bone marrow, liver, heart, small and large intestine, 1 sex organ, and kidney.

[1] = Body weight of RIF-1 tumor bearing mice; settings: Dox 5 mg/kg alone; FIG. 15
From the text: Groups of five mice each were inoculated s.c. with RIF-1 cells. The tumors were allowed to grow for 12 days to a size of 0.5 cm diameter, which was designated day 0. […] The mice were weighed and the tumor size measured every day.

Bcl-2 = test: Western blot for expression of Bcl-2 in RIF-1 tumors in vivo; parameters: species or system mice; settings: Dox alone; day 15; FIG. 16
From the text: Cells were dissociated, lysed, and the nuclei and mitochondria separated by differential centrifugation. RIF-1 cells cultured in vitro were processed in a similar manner as a positive control. Equal amounts of protein extracts were separated by electrophoresis and analyzed by Western blot for expression of Bcl-2. […] The pattern of Bcl-2 expression was similar in the nuclei, although the overall levels were lower than in the mitochondria. […] Most likely, this discrepancy can be explained by the fact that this line is transfected with exogenous Bcl-2, whereas the RIF-1 line expresses endogenous Bcl-2 under control of its natural promoter. […] Alternatively, W-188 and W-143 may differ in their mechanisms of action, although this conclusion seems less likely in view of the structural similarity of these two compounds.

AP24 = test: Etoposide-induced activation of AP24 (AAPVase) in HL-60 and PW leukemia lines; type: cell-based, human; settings: etoposide 50 μM, 3 h
HL-60 neo cells = test: DNA fragmentation (release of 3H-labeled DNA fragments) in vector control HL-60 neo cells; type: cell-based, human
Method: The present study evaluated the ability of W-188 to sensitize Bcl-2-overexpressing cells to induce apoptosis. The human myelogenous leukemia, HL-60, and the human B cell leukemia, PW, normally express very low levels of Bcl-2. As a model system, W-188 and various analogs and derivatives were tested in normal HL-60 and PW cells and in Bcl-2-transfected HL-60 and PW cells that overexpress high levels of Bcl-2 (see Gilbert et al., J. Cell Physiol., 1996, 171:299).
As depicted in FIG. 4, HL-60 cells (Panel A) and PW cells (Panel B) cells were exposed to various apoptosis inducers: TNF at 5 ng/ml; etoposide at 20 μM; and UV at 0.08 J/cm^2. The release of 3H-labeled DNA fragments was measured after 5 h. Normal HL-60 and PW cells were equally sensitive to apoptosis inducers as compared with cells that were transfected with vector encoding neomycin resistance (HL-60 neo and PW neo) only. […] W-188 alone was nontoxic. The addition of W-188 to the neo cell lines caused a 1.5-2 fold increase in DNA fragmentation in response to the various apoptosis inducers.

[2] = Cytotoxicity to normal venous endothelial cells (MTT dye reduction assay); type: cell-based, human; settings: human, normal venous endothelial cells, etoposide 100 μM, W-188 0 μg/mL; 6 h
overexpression of Bcl-2 = test: Comparison with compounds reported to counteract Bcl-2; type: cell-based; settings: data not shown
From the text: W-188 was then compared to other compounds previously reported to counteract Bcl-2 (Marchetti, P., et al., J. Immunol., 1996, 157:4830; Hirsch, T., et al., Exp. Cell Res., 1998, 241:426).

[3] = Exp 1, etoposide 5 μM + compound 10 μM
[4] = Exp 4, etoposide 5 μM + compound 10 μM
[5] = Exp 3, etoposide 5 μM + compound 20 μM
[6] = Exp 2, etoposide 10 μM + compound 10 μM

Cl.Cl.Cl.Cl.O.O=C(O)CN1CCCN(CC(=O)O)CCN(CC(=O)O)CCCN(CC(=O)O)CC1 [1,4,8,11-tetraazacyclotetra-decane-1,4,8,11-tetraacetic acid tetrahydrochioride hydrate]
% DNA Fragmentation (HL-60 Bcl-2 cells; [3]): 0%

Cc1nc(-c2nc(C)c(C)[nH]2)[nH]c1C [2,2′-bis(4,5-dimethyl-imidazole)]
% DNA Fragmentation (HL-60 Bcl-2 cells; [3]): 2%

CC(C)(C)c1ccc2c(c1)-c1nc3nc(nc4[nH]c(nc5[nH]c(nc-2n1)c1cc(C(C)(C)C)ccc51)c1cc(C(C)(C)C)ccc41)-c1ccc(C(C)(C)C)cc1-3 [2,9,16,23-tetra-tert-butyl-29H, 31H-phthalocyanine]
% DNA Fragmentation (HL-60 Bcl-2 cells; [4]): 0%

N#Cc1nc[nH]c1C#N [4,5-dicyanoimidazole]
% DNA Fragmentation (HL-60 Bcl-2 cells; [3]): 10%

CC1(C)CC(C#N)CC(C)(C)N1[O] [4-cyano tempo]
% DNA Fragmentation (HL-60 Bcl-2 cells; [3]): 2%

Cc1ccc(-c2c3nc(c(-c4ccc(C)cc4)c4ccc([nH]4)c(-c4ccc(C)cc4)c4nc(c(-c5ccc(C)cc5)c5ccc2[nH]5)C=C4)C=C3)cc1 [5,10,15,20-tetra-p-tolyl-21H,23H-porphine]
% DNA Fragmentation (HL-60 Bcl-2 cells; [4]): 15%

COc1cccc2c1C(=O)c1c(O)c3c(c(O)c1C2=O)C[C@@](O)(C(=O)CO)C[C@@H]3O[C@H]1C[C@H](N)[C@H](O)[C@H](C)O1 [Dox, doxorubicin, reference compound]
Effect on tumor growth (RIF-1 fibrosarcoma; Dox 5 mg/kg alone, three injections every other day, FIG. 14): only a small effect on tumor growth | Effect on tumor growth (RIF-1 fibrosarcoma; Dox alone at 2.5 or 5 mg/kg, five i.p. injections every other day, FIG. 11): very little effect on tumor growth | Histopathology (mice; three i.p. injections, day 5): minor vacuolar changes in the liver | Histopathology (mice; day 15): all tissues were normal | Body weight [1]: toxic causing a significant weight loss on day 7-8 | Bcl-2 expression in tumor cell mitochondria (Bcl-2): expressed high levels of Bcl-2

COc1cc([C@@H]2c3cc4c(cc3[C@@H](O[C@@H]3O[C@@H]5CO[C@@H](C)O[C@H]5[C@H](O)[C@H]3O)[C@H]3COC(=O)[C@H]23)OCO4)cc(OC)c1O [Etoposide]
AP24 Activity (AAPVase, nmol/mg/hr) (AP24; HL-60 Bcl-2): 14 nmol/mg/h | AP24 Activity (AAPVase, nmol/mg/hr) (AP24; HL-60 neo): 100 nmol/mg/h | AP24 Activity (AAPVase, nmol/mg/hr) (AP24; PW Bcl-2): 12 nmol/mg/h | AP24 Activity (AAPVase, nmol/mg/hr) (AP24; PW neo): 88 nmol/mg/h | % DNA Fragmentation (HL-60 Bcl-2 cells; Exp 1, etoposide 5 μM alone): 0% | % DNA Fragmentation (HL-60 Bcl-2 cells; Exp 2, etoposide 10 μM alone): 0% | % DNA Fragmentation (HL-60 Bcl-2 cells; Exp 3, etoposide 5 μM alone): 24% | % DNA Fragmentation (HL-60 Bcl-2 cells; Exp 4, etoposide 5 μM alone): 3% | % DNA Fragmentation (HL-60 Bcl-2 cells; Exp 5, etoposide 10 μM alone): 0% | % DNA Fragmentation (HL-60 neo cells; Exp 1, etoposide 5 μM alone): 72% | % DNA Fragmentation (HL-60 neo cells; Exp 2, etoposide 10 μM alone): 57% | % DNA Fragmentation (HL-60 neo cells; Exp 3, etoposide 5 μM alone): 97% | % DNA Fragmentation (HL-60 neo cells; Exp 4, etoposide 5 μM alone): 63% | % DNA Fragmentation (HL-60 neo cells; Exp 5, etoposide 10 μM alone): 57% | cytotoxicity at 6 h, 100 μM [2]: 22 ± 3.4%

C=CC1=C(C)c2cc3[n-]c(cc4[n-]c(cc5nc(cc1n2)C(C)=C5C=C)c(C)c4CCC(=O)O)c(CCC(=O)O)c3C.[Fe+2] [Fe protoporphyrin IX]
% DNA Fragmentation (HL-60 Bcl-2 cells; [5]): 17%

CCC(C)N(C)C(=O)c1cc2ccccc2c(-c2ccccc2Cl)n1 (stereo not drawn) [PK11195]
Reversal of the effect of overexpression of Bcl-2 (overexpression of Bcl-2; at 20 μM (the highest non-toxic concentration)): completely ineffective

C=CC1=C(C)c2cc3[n-]c(cc4[n-]c(cc5nc(cc1n2)C(C)=C5C=C)c(C)c4CCC(=O)O)c(CCC(=O)O)c3C.[Sn+4] [Sn protoporphyrin IX]
% DNA Fragmentation (HL-60 Bcl-2 cells; [5]): 5%

CCC1=C(C)C(=O)N/C1=C\c1[nH]c(C)c(CC)c1C [W-145]
% DNA Fragmentation (HL-60 Bcl-2 cells; Exp 5, etoposide 10 μM + compound 10 μM): 28%

C=CC1=C(C)c2cc3[n-]c(cc4[n-]c(cc5nc(cc1n2)C(C)=C5C=C)c(C)c4CCC(=O)O)c(CCC(=O)O)c3C.[Zn+2] [Zn protoporphyrin IX]
% DNA Fragmentation (HL-60 Bcl-2 cells; [5]): 19%

C=CC1=C(C)/C(=C/c2[nH]c(Cc3[nH]c(/C=C4\NC(=O)C(C)=C4C=C)c(C)c3CCC(=O)O)c(CCC(=O)O)c2C)NC1=O [bilirubin]
% DNA Fragmentation (HL-60 Bcl-2 cells; [6]): 17%

C=CC1=C(C)/C(=C/C2=NC(=C\c3[nH]c(/C=C4\NC(=O)C(C)=C4C=C)c(C)c3CCC(=O)O)/C(CCC(=O)O)=C2C)NC1=O [biliverdin]
% DNA Fragmentation (HL-60 Bcl-2 cells; [5]): 20%

[Co+2].c1ccc2c(c1)-c1nc-2nc2[n-]c(nc3nc(nc4[n-]c(n1)c1ccccc41)-c1ccccc1-3)c1ccccc21 [cobalt (II) pthalocyanine]
% DNA Fragmentation (HL-60 Bcl-2 cells; [3]): 9%

CC1=C(CCC(=O)O)c2cc3nc(cc4[nH]c(cc5[nH]c(cc1n2)c(C)c5CCC(=O)O)c(CCC(=O)O)c4C)C(CCC(=O)O)=C3C [coproporphyrin]
% DNA Fragmentation (HL-60 Bcl-2 cells; [6]): 15%

Br.Br.CCC1=C(C)c2cc3[nH]c(cc4[nH]c(cc5nc(cc1n2)C(C)=C5CC)c(C)c4CC)c(C)c3CC [etioporphyrin I dihydrobromide]
% DNA Fragmentation (HL-60 Bcl-2 cells; [4]): 25%

C=CC1=C(C)c2cc3[n-]c(cc4[n-]c(cc5nc(cc1n2)C(C)=C5C=C)c(C)c4CCC(=O)O)c(CCC(=O)O)c3C.O.[Fe+2] [hematin]
% DNA Fragmentation (HL-60 Bcl-2 cells; [3]): 2%

C1=Cc2cc3ccc(cc4ccc(cc5nc(cc1n2)C=C5)[nH]4)[nH]3 [porphyin]
% DNA Fragmentation (HL-60 Bcl-2 cells; [6]): 10%

C=CC1=C(C)c2cc3[nH]c(cc4nc(cc5[nH]c(cc1n2)c(C)c5CCC(=O)O)C(CCC(=O)O)=C4C)c(C)c3C=C [protoporphyrin IX]
% DNA Fragmentation (HL-60 Bcl-2 cells; [6]): 3%

CC(=O)O[C@H]1C(=O)[C@@]2(C)[C@H]([C@H](OC(=O)c3ccccc3)[C@]3(O)C[C@H](OC(=O)[C@H](O)[C@@H](NC(=O)c4ccccc4)c4ccccc4)C(C)=C1C3(C)C)[C@]1(OC(C)=O)CO[C@@H]1C[C@@H]2O [taxol]
Reversal of the effect of overexpression of Bcl-2, compared with W-188 (overexpression of Bcl-2): inferior to W-188

deuterporphyrin IX dimethyl ester
% DNA Fragmentation (HL-60 Bcl-2 cells; [3]): 8%
